This passage reports control value results from patent publication US20240358020A1, “FORMAMIDE DERIVATIVE AND AGRICULTURAL OR HORTICULTURAL PLANT DISEASE CONTROL AGENT” (Kumiai Chemical Industry Co., Ltd., priority 2021, published 2024).

What all share (assay type): in vivo
Experiment [1] deals with Wheat rust (Puccinia recondita). The experiment in a line: Wheat rust control effect test. The following applies: chemical solution 50 ppm active ingredient sprayed on wheat seedlings, then spray-inoculated; first leaf examined after 9 days. From the text:
(§1) [in the formula, N represents the total number of examined leaves, n0 represents the number of leaves having a disease severity index of 0, n1 represents the number of leaves having a disease severity index of 1, n2 represents the number of leaves having a disease severity index of 2, n3 represents the number of leaves having a disease severity index of 3, and n4 represents the number of leaves having a disease severity index of 4.]
[Test Example 2] Wheat rust (Puccinia recondita) control effect test Wheat seeds were sown in a pot, and a chemical solution was sprayed on the grown seedlings so that the concentration of the active ingredient was 50 ppm. Thereafter, a wheat rust fungus was spray-inoculated, the pot was transferred to a wet room and was kept under dark conditions, and invasion of pathogens was promoted. Thereafter, the pot was managed in a greenhouse, after 9 days, a degree of disease severity for each first leaf was examined according to the criteria in Table 220 to determine a degree of disease severity by a calculation formula of Equation 1, and a control value was determined by a calculation formula of Equation Formula 2.

Experiment [2] deals with Soybean Rust (Phakopsora pachyrhizi). The experiment in a line: Soybean rust control effect test. The following applies: sprayed on soybean seedlings at 100 g a.i./ha, then spray-inoculated; disease severity of first leaf examined after 12 to 14 days.
From the text: [Test Example 1] Soybean Rust (Phakopsora pachyrhizi) Control Effect Test
Soybean seeds were sown in a pot and sprayed on the grown seedlings so that the amount of the active ingredient was 100 g a.i./ha. Thereafter, a soybean rust fungus was spray-inoculated, the pot was transferred to a wet room and was kept under dark conditions, and invasion of pathogens was promoted. Thereafter, the pot was managed in a greenhouse, after 12 to 14 days, a degree of disease severity for each first leaf was examined according to the criteria in Table 226 to determine a degree of disease severity by a calculation formula of Equation 1, and a control value was determined by a calculation formula of Equation 2.
as §1

Experiment [3] deals with Rice Sheath Blight Disease (Rhizoctonia solani). As to the kind of experiment: Rice sheath blight disease control effect test. The following applies: chemical solution 50 ppm active ingredient sprayed on rice seedlings, then inoculated with bran medium culture; lesion height examined after 5 days.
From the text: as §1
[Test Example 3] Rice Sheath Blight Disease (Rhizoctonia solani) Control Effect Test
Rice seeds were sown in a pot, and a chemical solution was sprayed on the grown seedlings so that the concentration of the active ingredient was 50 ppm. Thereafter, a bran medium in which a rice sheath blight fungi was cultured was inoculated into the strain, the bran medium was transferred to a wet room, and invasion of pathogens was promoted. Thereafter, the pot was managed in a greenhouse, after 5 days, a lesion height was examined according to the criteria in Table 221 to determine a degree of disease severity by a calculation formula of Equation 1, and a control value was determined by a calculation formula of Equation 2.

Bounds are passed on as bounds.

Turning to `CCC(=O)N(Cc1ccccc1)c1ccc(-c2noc(C(F)(F)F)n2)cc1` [comparative compound], the control value in experiment [1] is reported as ≤ 12.5; in experiment [2], “less than 60”; in experiment [3] it was ≤ 12.5.
